Measurements as given in paper PMC12587574, “Mass balance, pharmacokinetics, metabolism, and excretion of radiolabeled acoziborole, a potential novel treatment for human African trypanosomiasis, following single microtracer oral dose to humans” (Antimicrobial Agents and Chemotherapy, 2025).

How the values were obtained:
T.b. gambiense = tested on: T.b. gambiense; set-up: method as in PMID 21738803; details: oral 5–25 mg/kg/day; acute and chronic infection; cited from earlier work
[1] = Distribution study of [14C]-acoziborole in Sprague-Dawley rats; type: in vivo; details: 10 mg/kg (200 µCi/kg)

CC1(C)OB(O)c2cc(NC(=O)c3ccc(F)cc3C(F)(F)F)ccc21 [acoziborole]
effect on survival of infected mice (T.b. gambiense): significantly prolong survival | outcome of oral treatment in infected mice (T.b. gambiense): curative | radioactivity collected in feces during 7 days, share of total radioactivity ([1]; female rats): > 73% | radioactivity in combined feces and urine during 7 days, share of total radioactivity ([1]; female rats): > 86% | radioactivity collected in feces during 7 days, share of total radioactivity ([1]; male rats): over 66% | radioactivity in combined feces and urine during 7 days, share of total radioactivity ([1]; male rats): over 85%
